Values quoted from earlier work, collected in patent US8372434B2, “Ophthalmic oil-in-water type emulsion with stable positive zeta potential” (Novagali Pharma SA, priority 2004, dated 2013).

Conditions: at 0.1% or 0.3% w/v

Structure (SMILES)	safety for ocular administration
CCCCCCCCCCCCCCCCCCN [stearylamine]	safe for ocular administration
CCCCCCCC/C=C\CCCCCCCCN [oleylamine]	safe for ocular administration
